Laboratory results published in PubChem BioAssay (NCI).
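A five-concentration, 48-hour dose response in 96-well plates underlies each endpoint, interpolated linearly between surrounding concentrations. TGI is the concentration that stops growth completely.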

Assays:
Experiment in all cases: NCI-60 cell line screen, 48 h
[1] = tested on: SF-539 CNS
[2] = tested on: SW-620 colon
[3] = tested on: SN12C renal
[4] = tested on: NCI-H226 lung
[5] = tested on: SK-MEL-2 melanoma
[6] = tested on: SF-295 CNS
[7] = tested on: SNB-19 CNS
[8] = tested on: EKVX NSCLC
[9] = tested on: A549 NSCLC
[10] = tested on: OVCAR-4 ovarian
[11] = tested on: SK-OV-3 ovarian
[12] = tested on: MDA-MB-435
[13] = tested on: M14 melanoma
[14] = tested on: MCF7 breast
[15] = tested on: NCI-H522 lung
[16] = tested on: MDA-MB-231 breast
[17] = tested on: 786-0 renal
[18] = tested on: RXF 393 renal
[19] = tested on: NCI-H460 lung

Row | SMILES | TGI [1] [µM] | TGI [2] [µM] | TGI [3] [µM] | TGI [4] [µM] | TGI [5] [µM] | TGI [6] [µM] | TGI [7] [µM] | TGI [8] [µM] | TGI [9] [µM] | TGI [10] [µM] | TGI [11] [µM] | TGI [12] [µM] | TGI [13] [µM] | TGI [14] [µM] | TGI [15] [µM] | TGI [16] [µM] | TGI [17] [µM] | TGI [18] [µM] | TGI [19] [µM]
1 | COc1ccc(CCNC(=O)CCCCCO)cc1OC | > 100 | > 100 | > 100 | > 100 | > 100 | > 100 | > 100 | > 100 | > 100 | > 100 | > 100 | > 100 | > 100 | > 100 | > 100 | > 100 | > 100 | > 100 | > 100
2 | O=C1c2ccccc2-c2nnc(-c3ccc(Cl)cc3)cc21 | > 10 | > 10 | > 10 | > 10 | > 10 | > 10 | > 10 | > 10 | > 10 | > 10 | > 10 | > 10 | > 10 | > 10 | > 10 | > 10 | > 10 | > 10 | > 10
3 | O=C(NN1C(=O)CSC1c1ccco1)c1ccncc1 (configuration not stated) | > 100 | > 100 | > 100 | > 100 | > 100 | > 100 | > 100 | > 100 | > 100 | > 100 | > 100 | > 100 | > 100 | > 100 | > 100 | > 100 | > 100 | > 100 | > 100
4 | S=c1nc2sc3c(c2c(Nc2ccc(Br)cc2)[nH]1)CCN(N1CCc2c(sc4nc(=S)[nH]c(Nc5ccc(Br)cc5)c24)C1)C3 | > 50 | > 50 | > 50 | > 50 | > 50 | > 50 | > 50 | > 50 | > 50 | > 50 | > 50 | > 50 | 17.1 | > 50 | 44.5 | > 50 | 15.5 | 42.5 | > 50
5 | CCCCC1(N=[N+]=[N-])C(=O)C2C=CC=C3c4ccccc4N(C1=O)C32 (configuration not stated) | > 31.6 | > 31.6 | > 31.6 | > 31.6 | 21.5 | > 31.6 | > 31.6 | > 31.6 | > 31.6 | > 31.6 | > 31.6 | > 31.6 | > 31.6 | 28.1 | 25.1 | > 31.6 | > 31.6 | 23.7 | > 31.6
6 | COC(=O)C(Cc1ccccc1)NC(=O)c1ccc(CNC(=S)NCc2cccc(CNC(=S)NCc3ccccc3)c2)cc1 (configuration not stated) | > 62.5 | > 62.5 | > 62.5 | > 62.5 | > 62.5 | > 62.5 | > 62.5 | > 62.5 | > 62.5 | > 62.5 | > 62.5 | > 62.5 | > 62.5 | > 62.5 | > 62.5 | > 62.5 | > 62.5 | > 62.5 | > 62.5
7 | COP(=O)(OC)c1ccc(NCc2cc(O)ccc2O)cc1 | 46.1 | > 100 | > 70.6 | > 77.9 | > 87.8 | 35.2 | > 100 | 56.4 | > 100 | > 59 | > 100 | 74.1 | > 61.1 | 99.3 | > 71.8 | > 57.8 | 58.1 | 74.9 | 45.4
8 | Cc1cc2c(cc1-c1cc3c(cc1C)C(C(C)C)=C(O)C(=O)/C3=C\Nc1c(C)n(C)n(-c3ccccc3)c1=O)/C(=C/Nc1c(C)n(C)n(-c3ccccc3)c1=O)C(=O)C(O)=C2C(C)C | > 100 | > 100 | > 100 | > 100 | > 100 | > 100 | > 100 | > 100 | > 100 | > 100 | > 100 | > 100 | > 100 | > 100 | > 100 | > 100 | > 100 | > 100 | > 100
